Experimental data taken from ChEMBL document CHEMBL1201862, “PubChem BioAssay data set” (2004).
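A five-concentration, 48-hour dose response in 96-well plates underlies each endpoint, interpolated linearly between surrounding concentrations. GI50: concentration for 50% inhibition of growth.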 Calls of active or inactive are those of the source. Rule as the data show it: active = GI50 up to about 1.1 µM and inactive = higher.

Columns and labels:
Experiment in all cases: NCI-60 cell line screen, 48 h
CAKI-1 = tested on: CAKI-1
HCT-116 = tested on: HCT-116
HL-60 = tested on: HL-60
HOP-62 = tested on: HOP-62
LOX IMVI = tested on: LOX IMVI
MDA-MB-435 = tested on: MDA-MB-435
NCI-H226 = tested on: NCI-H226
NCI-H23 = tested on: NCI-H23
NCI-H460 = tested on: NCI-H460
NCI-H522 = tested on: NCI-H522
NCI/ADR-RES = tested on: NCI/ADR-RES
OVCAR-5 = tested on: OVCAR-5
RPMI-8226 = tested on: RPMI-8226
SF-295 = tested on: SF-295
SF-539 = tested on: SF-539
SK-MEL-5 = tested on: SK-MEL-5
SK-OV-3 = tested on: SK-OV-3
SW-620 = tested on: SW-620
HOP-92 = tested on: HOP-92
RXF 393 = tested on: RXF 393

Measured: GI50

CC(=O)c1c2c(cc3c1CCC3)CCC2
inactive: CAKI-1 > 100 µM | HCT-116 70.3 µM | HL-60 > 100 µM | HOP-62 > 100 µM | LOX IMVI > 100 µM | MDA-MB-435 > 100 µM | NCI-H226 82 µM | NCI-H23 > 100 µM | NCI-H460 > 100 µM | NCI-H522 > 100 µM | NCI/ADR-RES > 100 µM | OVCAR-5 > 100 µM | RPMI-8226 76 µM | SF-295 > 100 µM | SF-539 > 100 µM | SK-MEL-5 > 100 µM | SK-OV-3 > 100 µM | SW-620 > 100 µM

O=P1(c2ccccc2)c2ccccc2-c2ccccc21
inactive: CAKI-1 81.8 µM | HCT-116 99.3 µM | HL-60 66.1 µM | HOP-62 > 100 µM | HOP-92 13.9 µM | LOX IMVI > 100 µM | MDA-MB-435 > 100 µM | NCI-H226 > 100 µM | NCI-H23 > 100 µM | NCI-H522 > 100 µM | RPMI-8226 74.1 µM | RXF 393 93.8 µM | SF-295 57.8 µM | SF-539 > 100 µM | SK-MEL-5 44.4 µM | SK-OV-3 > 100 µM | SW-620 > 100 µM

CC(C)c1cc(Cl)nc(Cl)n1
inactive: CAKI-1 > 100 µM | HCT-116 > 100 µM | HL-60 > 100 µM | LOX IMVI > 100 µM | MDA-MB-435 > 100 µM | NCI-H226 > 100 µM | NCI-H23 > 100 µM | NCI-H460 > 100 µM | NCI-H522 > 100 µM | NCI/ADR-RES > 100 µM | OVCAR-5 > 100 µM | RPMI-8226 > 100 µM | RXF 393 > 100 µM | SF-295 > 100 µM | SF-539 > 100 µM | SK-MEL-5 > 100 µM | SK-OV-3 > 100 µM | SW-620 > 100 µM

N#CC(C#N)=c1ccc(=C2NCC3CCCN23)cc1 (stereo not drawn)
inactive: CAKI-1 > 100 µM | HCT-116 > 100 µM | HL-60 > 100 µM | HOP-62 > 100 µM | HOP-92 > 100 µM | LOX IMVI > 100 µM | NCI-H226 > 100 µM | NCI-H460 > 100 µM | NCI-H522 > 100 µM | OVCAR-5 > 100 µM | RPMI-8226 > 100 µM | RXF 393 > 100 µM | SF-295 > 100 µM | SF-539 > 100 µM | SK-MEL-5 > 100 µM | SK-OV-3 > 100 µM | SW-620 > 100 µM

CC1(C)OCC(C2OC(OC(=O)c3ccc([N+](=O)[O-])cc3)C3OC(C)(C)OC23)O1 (stereo not drawn)
inactive: CAKI-1 > 100 µM | HCT-116 > 100 µM | HOP-62 27.3 µM | LOX IMVI > 100 µM | MDA-MB-435 > 100 µM | NCI-H226 > 100 µM | NCI-H23 > 100 µM | NCI-H460 > 100 µM | NCI-H522 75.5 µM | NCI/ADR-RES 69.5 µM | OVCAR-5 > 100 µM | RPMI-8226 > 100 µM | RXF 393 58.1 µM | SF-295 53.2 µM | SF-539 > 100 µM | SK-MEL-5 > 100 µM | SK-OV-3 > 100 µM | SW-620 > 100 µM

O=C1CCCC2=C1CC1=C(CCCC1=O)N2c1ccccc1C(=O)O
inactive: CAKI-1 > 100 µM | HL-60 > 100 µM | HOP-92 > 100 µM | LOX IMVI > 100 µM | NCI-H226 > 100 µM | NCI-H23 > 100 µM | NCI-H460 > 100 µM | NCI/ADR-RES > 100 µM | OVCAR-5 > 100 µM | RPMI-8226 > 100 µM | RXF 393 > 100 µM | SF-539 > 100 µM | SK-MEL-5 > 100 µM | SK-OV-3 > 100 µM | SW-620 > 100 µM

Nc1ccc(Nc2cc(O)nc(O)n2)cc1
inactive: CAKI-1 > 100 µM | HCT-116 > 100 µM | HL-60 > 100 µM | HOP-62 > 100 µM | LOX IMVI > 100 µM | MDA-MB-435 > 100 µM | NCI-H226 > 100 µM | NCI-H23 > 100 µM | NCI-H460 > 100 µM | NCI-H522 > 100 µM | NCI/ADR-RES > 100 µM | RPMI-8226 > 100 µM | SF-295 > 100 µM | SF-539 > 100 µM | SK-MEL-5 > 100 µM | SK-OV-3 > 100 µM | SW-620 > 100 µM

CC(C)(O)C(O)COc1c2c(cc3oc(=O)ccc13)OCO2 (stereo not drawn)
inactive: CAKI-1 > 100 µM | HCT-116 > 100 µM | HL-60 > 100 µM | HOP-62 > 100 µM | HOP-92 > 100 µM | LOX IMVI > 100 µM | NCI-H226 > 100 µM | NCI-H23 > 100 µM | NCI-H460 > 100 µM | NCI-H522 > 100 µM | OVCAR-5 > 100 µM | RPMI-8226 > 100 µM | RXF 393 > 100 µM | SF-295 > 100 µM | SF-539 > 100 µM | SK-MEL-5 > 100 µM | SK-OV-3 > 100 µM | SW-620 > 100 µM
